Each block holds one molecule with its values, some of them ahead of it.
How the values were obtained:
[1] = test system: blood glucose; assay: Hypoglycemic activity: dose-effect relationship in normal rats; type: in vivo, male Wistar rats
Description: Five male Wistar rats weighing about 170g were used at each dosage level. […] 2, 3 and 5 hours after administration, a blood sample was taken from the tail vein of the rat and assayed for glucose by the glucose oxidase method.

[2] = test system: blood glucose; assay: Glucose tolerance test in normal rats; type: in vivo, male Wistar rats
Description: Five male Wistar rats weighing about 200g were used at each dose level. An aqueous solution or suspension of a test compound was orally administered by means of a stomach tube to each rat which had not been fed for 24 hours before administration. […] Blood samples were taken from the tail vein just before and 15, 30, 60 and 90 minutes after glucose loading, and were assayed for blood glucose. The glucose tolerance of the rats was estimated by the increase in blood glucose during the 90 minutes after glucose loading [formula]

[3] = test system: blood glucose; assay: Glucose tolerance test in streptozotocin-induced mildly diabetic rats; type: in vivo, male Wistar rats (streptozotocin diabetic)
Description: An aqueous solution or suspension of a test compound was orally administered to male Wistar rats which had not been fed for 24 hours prior to oral administration and which had been rendered diabetic for about 2 months by a single intravenous injection of streptozotocin (20 mg/kg body weight). Control diabetic rats received water. Unfed (fasted) and fed blood glucose levels of the rats were 89 ± 1~103 ± 4 mg/dl and 123 ± 2~189 ± 11 mg/dl, respectively. […] Blood samples were taken from the tail vein just before and 15, 30, 60 and 90 minutes after glucose loading, and were assayed for blood glucose. The glucose tolerance of the rats was estimated by the increase in blood glucose during the 90 minutes after glucose loading, i.e., [formula]

[4] = test system: immunoreactive insulin (IRI); assay: Insulin releasing action; type: in vivo, male Wistar rat
Description: A saline solution containing a test compound was injected into the femoral vein of a normal male Wistar rat weighing about 200 g under pentobarbital anesthesia (5 rats/group). Control rats received a saline injection. Blood samples were taken from the tail vein before and 10, 20, 30 and 40 minutes after injection of the test compound, and were assayed for immunoreactive insulin (IRI) by the method of C. R. Morgan et al (Diabetes, 12, 115.1963).

[5] = test system: platelet aggregation; assay: Inhibitory action on collagen-induced platelet aggregation in platelet rich plasma; type: cell-based; settings: concentration giving 50% inhibition of reaction rate of collagen-induced platelet aggregation, rat platelet rich plasma, 30° C; read-out: Inhibitory Action ID50
Description: Platelet rich plasma was prepared by centrifugation (1000 rpm, 5 min.) of fresh citrated rat blood. Fifty microliters of a solution containing a test compound at various concentrations were added to 0.4 ml of the platelet rich plasma, and the mixture was stirred for 1 minute at 1100 rpm and 30° C. Then, 50 μl of a collagen suspension was added to initiate platelet aggregation, which was measured turbidometrically according to G.V.R. Born (Nature, 194, 927, 1962). The ID50 values represent the concentration (mM) of the compound giving a 50% inhibition of the reaction rate of […] platelet aggregation.

[6] = test system: serum lactate; assay: Effect on serum lactate level; type: in vivo, male Wister rat; settings: 200 mg/kg daily oral for 4 days; for Percent of Initial Serum Lactate, 24 hrs: just before the 2nd dosing; for Percent of Initial Serum Lactate, 76 hrs: 3 hours after the last dosing
Description: An aqueous solution or suspension of a test compound was orally administered to a normal male Wister rat weighing about 200 g at a daily dose of 200 mg/kg body weight for 4 days (5 rats/group). Blood samples were taken consecutively from the tail vein, and were assayed for serum lactate by the method of Hans-Jurgens Hohorst (Methods of Enzymatic Analysis, ed. by Hans Ulrich Bergmayer, Academic Press Inc., New York, 1965).

[7] = test system: blood glucose; assay: Long-term administration in streptozotocin-induced diabetic rats: fed blood glucose; type: in vivo, male Wistar rats (streptozotocin diabetic); settings: 485 ± 18 at start, control 415 ± 27
Description: (§1) Diabetes was induced in male Wistar rats weighing about 170 g by a single intraperitoneal (60 mg/kg body weight) or intravenous (35 mg/kg) injection of streptozotocin. […] These rats were treated with Compound A, tolubutamide or phenformin at a daily oral dose of 25, 50 or 10 mg/kg body weight, respectively. Control diabetic rats received no treatment. The treatment was started 1 month after streptozotocin injection and continued for 4 (tolubutamide and phenformin) or 5 months (Compound A).
Fed blood glucose levels of the rats were 485 ± 18 mg/dl at the start of the treatment and 415 ± 27 (control group), 423 ± 17 (Compound A group), 447 ± 15 (tolubutamide group) and 425 ± 29 mg/dl (phenformin group) at the end of the experiment.

[8] = test system: serum lipids; assay: Long-term administration in streptozotocin-induced diabetic rats: serum lipids; type: in vivo, male Wistar rats (streptozotocin diabetic); settings: for hyperlipidemia / serum triglyceride tendency (in words): long-term administration, diabetic rats
Description: as §1
(§2) At the end of the experiment, the rats were sacrificed for histological examination of the kidneys and the liver and for determination of serum lipids.

[9] = Acute toxicity in rats by oral administration; settings: rat, in vivo, male Donryu rats, mortality on the 7th day, Litchfield and Wilcoxon
Description: Acute Toxicity tests were carried out in rats by oral administration. Each LD50 was calculated from the mortality percentage on the 7th day according to the method of Litchfield and Wilcoxon. Ten male rats of the Donryu strain were used at each dose level.

[10] = test system: kidneys; assay: Long-term administration in streptozotocin-induced diabetic rats: histological examination of the kidneys; type: in vivo, male Wistar rats (streptozotocin diabetic)
Description: as §1, §2

[11] = 25 mg/kg oral, fasted normal rats
[12] = 10 mg/kg oral, 1 hour prior to glucose loading
[13] = 10 mg/kg oral, 1 hour prior to glucose loading (1 g/kg i.p.), control 121 ± 14 (A), 127 ± 8 (B, C)
[14] = 10 mg/kg oral, 1 hour prior to glucose loading, control 265 ± 21 (A), 206 ± 18 (B, C)
[15] = 25 mg/kg daily, 5 months, 7 rats
[16] = 25 mg/kg i.v., control 50 ± 8, 0-40 minutes
[17] = 10 mg/kg daily, 4 months, 7 rats, * = significant, p < 0.05 vs. diabetic control
[18] = 20 mg/kg oral, given 30 minutes prior to glucose loading
[19] = 50 mg/kg daily, 4 months, 8 rats

Molecule: 1-methyl-2-benzhydryliminoimidazolidine.hydroiodide [Example 4]
- Decrease in blood glucose (% based on the control), 3 hrs [1, 11]: 32%
- Decrease in blood glucose (% based on the control), 5 hrs [1, 11]: 19%

Molecule: 2-benzhydryliminoimidazolidine hydrochloride [Example 3]
- Decrease in blood glucose (% based on the control), 3 hrs [1, 11]: 39%
- Decrease in blood glucose (% based on the control), 5 hrs [1, 11]: 39%

Molecule: CN1CCNC1=NC(c1ccccc1)c1ccccc1 [Compound A, 1-methyl-2-benzhydryliminoimidazolidine]
- Increase in glucose tolerance [2, 12]: 52.1%
- Increase in blood glucose during the 90 minutes after glucose loading, test compound (head [drawing 13]) [2, 13]: 58 ± 4
- Improvement of glucose tolerance [3, 12]: 43.0%
- Increase in blood glucose during the 90 minutes after glucose loading, test compound (head [drawing 15]) [3, 14]: 151 ± 43
- Insulin Released [ΣΔIRI (0-40)] ([4]; 25 mg/kg i.v., second column (control 42 ± 19), 0-40 minutes): 208 ± 21 μunit/ml serum
- IC50 [5]: 320 µM
- Percent of Initial Serum Lactate, 24 hrs [6]: 114.9%
- Percent of Initial Serum Lactate, 76 hrs [6]: 94.6%
- Fed blood glucose level at the end of the experiment ([7]; 25 mg/kg daily oral, 5 months): 423 ± 17 mg/dL
- Serum cholesterol [8, 15]: 78.7 % of control
- Serum free fatty acid [8, 15]: 86.1 % of control
- Serum triglyceride ([8]; 25 mg/kg daily, 5 months, 7 rats, * = significant, p < 0.05 vs. diabetic control): 53.0 % of control
- LD50 at 168 h [9]: 660 mg/kg

Molecule: c1ccc(C(CC2=NCCN2)c2ccccc2)cc1 [Compound B, 2-(2,2-diphenylethyl)-2-imidazoline]
- Increase in glucose tolerance [2, 12]: 96.9%
- Increase in blood glucose during the 90 minutes after glucose loading, test compound (head [drawing 13]) [2, 13]: 4 ± 12
- Improvement of glucose tolerance [3, 12]: 74.8%
- Increase in blood glucose during the 90 minutes after glucose loading, test compound (head [drawing 15]) [3, 14]: 52 ± 12
- Insulin Released [ΣΔIRI (0-40)] [4, 16]: 250 ± 13 μunit/ml serum
- IC50 [5]: 50 µM
- Percent of Initial Serum Lactate, 24 hrs [6]: 139.6%
- Percent of Initial Serum Lactate, 76 hrs [6]: 113.3%
- LD50 at 168 h [9]: 562 mg/kg

- IC50 [5]: 120 µM
Molecule: CN1CCN=C1CC(c1ccccc1)c1ccccc1 [Compound C, 1-methyl-2-(2,2-diphenylethyl)-2-imidazoline]
- Increase in glucose tolerance [2, 12]: 26.0%
- Increase in blood glucose during the 90 minutes after glucose loading, test compound (head [drawing 13]) [2, 13]: 94 ± 8
- Improvement of glucose tolerance [3, 12]: 17.5%
- Increase in blood glucose during the 90 minutes after glucose loading, test compound (head [drawing 15]) [3, 14]: 170 ± 15
- Insulin Released [ΣΔIRI (0-40)] [4, 16]: 214 ± 17 μunit/ml serum

Molecule: CN1CCN(C(=O)c2ccccc2)C1=NC(c1ccccc1)c1ccccc1 [Compound D, 1-methyl-2-benzhydrylimino-3-benzoylimidazolidine]
- IC50 [5]: 270 µM
- LD50 at 168 h [9]: > 1000 mg/kg

Molecule: CN1CCN(C(=O)c2cccs2)C1=NC(c1ccccc1)c1ccccc1 [Compound E, 1-methyl-2-benzhydrylimino-3-thienoylimidazolidine]
- IC50 [5]: 130 µM
- LD50 at 168 h [9]: > 1000 mg/kg

- IC50 [5]: 480 µM
Molecule: CN1CCN(C(=O)c2cccnc2)C1=NC(c1ccccc1)c1ccccc1 [Compound F, 1-methyl-2-benzhydrylimino-3-nicotinoyl-imidazolidine]

Molecule: CN1CCCC1=NC(c1ccccc1)c1ccccc1 [Compound Q, Benzhydryl Lactamimide, reference compound]
- Insulin Released [ΣΔIRI (0-40)] [4, 16]: 198 ± 16 μunit/ml serum

Molecule: CN1CCCC1=NC(c1ccccc1)c1ccccc1 [Compound Z, reference compound]
- Percent of Initial Serum Lactate, 24 hrs [6]: 152.1%
- Percent of Initial Serum Lactate, 76 hrs [6]: 218.8%

Molecule: [H]/N=C(/N)N/C(=N/[H])NCCc1ccccc1 [Phenformin, phenformin, reference compound]
- Decrease in blood glucose (% based on the control), 2 hrs ([1]; Dose = 100 mg/kg oral): 10%
- Decrease in blood glucose (% based on the control), 3 hrs ([1]; Dose = 100 mg/kg oral): 15%
- Decrease in blood glucose (% based on the control), 5 hrs ([1]; Dose = 100 mg/kg oral): 15%
- Percent of Initial Serum Lactate, 24 hrs [6]: 196.6%
- Percent of Initial Serum Lactate, 76 hrs [6]: 283.6%
- Fed blood glucose level at the end of the experiment ([7]; 10 mg/kg daily oral, 4 months): 425 ± 29 mg/dL
- Serum cholesterol [8, 17]: 180.0 % of control
- Serum free fatty acid [8, 17]: 157.0 % of control
- Serum triglyceride [8, 17]: 225.7 % of control
- hyperlipidemia / serum triglyceride tendency (in words) [8]: increased tendency of hyperlipidemia

Molecule: CCCCNC(=O)NS(=O)(=O)c1ccc(C)cc1 [Tolubutamide, tolubutamide, reference compound]
- Decrease in blood glucose (% based on the control), 2 hrs [1, 11]: 20%
- Decrease in blood glucose (% based on the control), 3 hrs [1, 11]: 24%
- Decrease in blood glucose (% based on the control), 5 hrs [1, 11]: 20%
- Increase in glucose tolerance [2, 18]: 31.4%
- Increase in blood glucose during the 90 minutes after glucose loading, test compound (head [drawing 13]) ([2]; 20 mg/kg oral, given 30 minutes prior to glucose loading (1 g/kg i.p.), control 121 ± 14): 83 ± 14
- Improvement of glucose tolerance [3, 18]: 32.6%
- Increase in blood glucose during the 90 minutes after glucose loading, test compound (head [drawing 15]) ([3]; 20 mg/kg oral, given 30 minutes prior to glucose loading, 3 rats, control 265 ± 21): 179 ± 23
- Insulin Released [ΣΔIRI (0-40)] ([4]; 50 mg/kg i.v., control 50 ± 8, 0-40 minutes): 189 ± 26 μunit/ml serum
- Insulin Released [ΣΔIRI (0-40)] ([4]; 50 mg/kg i.v., second column (control 42 ± 19), 0-40 minutes): 141 ± 14 μunit/ml serum
- Fed blood glucose level at the end of the experiment ([7]; 50 mg/kg daily oral, 4 months): 447 ± 15 mg/dL
- Serum free fatty acid [8, 19]: 133.0 % of control
- Serum triglyceride [8, 19]: 186.8 % of control
- Serum cholesterol ([8]; 50 mg/kg daily, 4 months, 8 rats, * = significant, p < 0.05 vs. diabetic control): 150.0 % of control
- hyperlipidemia / serum triglyceride tendency (in words) [8]: increased tendency of hyperlipidemia
- kidney histology: diffuse glomerulosclerosis and tubular alterations (in words) [10]: to some extent, deteriorated

Reference: patent publication US4136188A, “Treatment of diabetes with 2-substituted-1,3-diazacyclic compounds” (priority 1976, dated 1979)
